Where a name gives a salt, the structure may show the parent alone. Read-outs that look alike come from different tables or passages of the source.
Experiments:
Recomb. Human Thrombin [1] = target: T1, Recomb. Human Thrombin (Homo sapiens, UniProt P00734); experiment: Protease Thrombin inhibition assay, chromogenic substrate D-Phe-Homopro-Arg-pNA; format: biochemical; conditions: 30 minutes preincubation at room temperature, 100 µM reference substrate, absorption 405 nm, 25°C
T1 construct: purchased R&D systems 1473-SE-010
Method: (§1) Protease Thrombin inhibiton assay - Calculation of IC50 values
Protease: Recomb. Human Thrombin, Bought 30.01.2020; Art. 1473-SE-010; Company: R&D systems Reference substrate: D-Phe-Homopro-Arg-pNA; Company: Bachem; Art no.: 4008145.0050
• Reconstitute at 100 µg/ml (1428.57 nM) in sterile 50 mM HEPES and 640 mM NaCl • Diluted to a stock solution c = 0.04 µg/µl with TNC buffer
(§2) • Dilute and aliquote 2.1 mg of reference substrate to a concentration of c = 2000 µM in TNC. Dilute and aliquote further to a concentration of c = 200 µM in TNC buffer. Endconcentration in well: c = 100 µM.
(§3) • Inhibitor was diluted with pure DMSO to a concentration of 10 mM • This 10 mM stock solution was further diluted:
(§4) • 25 mM Tris, 150 mM NaCl, 5 mM CaCl2, 0,01% Triton X-100, pH = 8 (stored at 8°C)
(§5) • Total volume per well: 100µl • Temperature: 25°C • Kinetic interval: every 2 minutes • Absorption: 405 nm • Number of flashes: 25 • Shaking before measurememt: 3s • Shaking amplitude: 5 mm
(§6) • Per well: add 50 µl of Thrombin/TNC solution (c = 0.04 µg/µl), add 1 µl of inhibitor. • Incubate for 30 minutes at room temperature • After incubation, add […] of c = 200 µM reference substrate Endconcentration of substances per well: c = 100 µM of reference substrate, c = 0.002 µg of […] solution, 1% DMSO
(§7) • Graph pad prism 7 was used to analyze the data. The velocity (change of absorbance over time) was plotted against the concentration. A non linear regression was performed with the following equation: [inhibitor] vs. response - Variable slope (four parameters)

[2] = test system: pseudotyped particle LV(Luc)-CoV2 in CaCo-2 cells; conditions: 2 h
[3] = target: T2, Recomb. Human Coag. Factor Xa protein (Homo sapiens, UniProt P00742); experiment: Protease Factor Xa inhibition assay, chromogenic substrate Bz-Ile-Glu-Gly-Arg-pNA; format: biochemical; conditions: 0.35 nM Factor Xa, 200 µM reference substrate, 30 minutes preincubation, absorption 405 nm, 25°C
T2 construct: purchased Bio-Techne GmbH 1063-SE-010
Method: (§8) Protease Factor Xa inhibiton assay - Calculation of IC50 values
(§9) Recomb. Human Coag. Factor Xa protein, CF: Bought 09.12.2020; Art. 1063-SE-010; Company: Bio-Techne GmbH
(§10) • Reconstitute at 100 µg/ml in sterile 25 mM MES, 150 mM NaCl, 5 mM CaCl2, pH6 • Diluted to a stock solution of 1000 nM with TNC buffer • This stock solution was further diluted with TNC buffer to a concentration of 35 nM and aliquoted. Stored at -20°C. Endconcentration in well: c = 0.35 nM
• Delivered: 5mg. Dilute and aliquote reference substrate to a concentration of 10 mM in pure DMSO. Endconcentration in well: c = 200 µM (= KM for Factor Xa)
as §3, §4, §5
(§11) • Per well: add 97 µl TNC buffer, add 1 µl of c = 35 nM solution of Factor Xa, add 1 µl of inhibitor • Incubate for 30 minutes at room temperature • After incubation, add 1 µl of c = 10 mM reference substrate Endconcentration of substances per well: c = 200 µM of reference substrate, c = 0.35 nM of Factor Xa solution, 2% DMSO
as §7, with “Graph” for “• Graph”, “parameters) Table 1. IC50 values of inventive inhibitors with respect to TMPRSS2, thrombin and Factor Xa” for “parameters)”

TMPRSS2 [4] = target: T3, TMPRSS2 (Homo sapiens, UniProt O15393); experiment: TMPRSS2 inhibition, IC50 (Table 1); format: biochemical; conditions: nonlinear regression, variable slope (four parameters)
SARS-CoV2 WT [5] = conditions: 2 h
TMPRSS2 [6] = target: T3, TMPRSS2; experiment: TMPRSS2 inhibition, IC50 (Table 1); format: biochemical; conditions: nonlinear regression, variable slope (four parameters); remark: listed apart in the source
Description: Inhibitors were screened against TMPRSS2, thrombin and factor Xa.

[7] = target: T2, Recomb. Human Coag. Factor Xa protein; experiment: Protease Factor Xa inhibition assay, chromogenic substrate Bz-Ile-Glu-Gly-Arg-pNA; format: biochemical; conditions: 0.35 nM Factor Xa, 200 µM reference substrate, 30 minutes preincubation, absorption 405 nm, 25°C; remark: listed apart in the source
Method: as §8, §9, §10
• Delivered: 5mg. Dilute and aliquote reference substrate to a concentration of 10 mM in pure DMSO.
as §3, §4, §5, §11
as §7, with “Graph” for “• Graph”, “parameters) Table 1. IC50 values of inventive inhibitors with respect to TMPRSS2, thrombin and Factor Xa” for “parameters)”

[8] = test system: pseudotyped particle LV(Luc)-CoV2 in CaCo-2 cells; experiment: microbe, parasite or virus in culture; format: cell-based, SARS-CoV2; conditions: Severe acute respiratory syndrome coronavirus 2, 2 h incubation with inhibitor before transduction, luciferase activity at 48 h post transduction
Recomb. Human Thrombin [9] = target: T1, Recomb. Human Thrombin; experiment: Protease Thrombin inhibition assay, chromogenic substrate D-Phe-Homopro-Arg-pNA; format: biochemical
Method: as §1, §2, §3, §4, §6, §7

SARS-CoV2 WT [10] = experiment: microbe, parasite or virus in culture; format: cell-based; conditions: Severe acute respiratory syndrome coronavirus 2

T2 sequence (P00742 235-488 limits assumed): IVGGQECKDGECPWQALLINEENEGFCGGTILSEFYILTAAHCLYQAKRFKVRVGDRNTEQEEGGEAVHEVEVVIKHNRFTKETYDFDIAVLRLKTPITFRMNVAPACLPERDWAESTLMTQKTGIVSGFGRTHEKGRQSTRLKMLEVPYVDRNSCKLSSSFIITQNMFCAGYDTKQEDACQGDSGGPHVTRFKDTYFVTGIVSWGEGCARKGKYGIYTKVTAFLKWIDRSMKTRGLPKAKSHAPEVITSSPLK
T2 sequence (P00742 41-179 partner limits assumed): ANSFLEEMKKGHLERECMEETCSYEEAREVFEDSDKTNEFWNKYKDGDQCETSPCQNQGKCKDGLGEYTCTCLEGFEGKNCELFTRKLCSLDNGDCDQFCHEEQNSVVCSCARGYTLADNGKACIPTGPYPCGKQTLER
T3 sequence (O15393 whole entry): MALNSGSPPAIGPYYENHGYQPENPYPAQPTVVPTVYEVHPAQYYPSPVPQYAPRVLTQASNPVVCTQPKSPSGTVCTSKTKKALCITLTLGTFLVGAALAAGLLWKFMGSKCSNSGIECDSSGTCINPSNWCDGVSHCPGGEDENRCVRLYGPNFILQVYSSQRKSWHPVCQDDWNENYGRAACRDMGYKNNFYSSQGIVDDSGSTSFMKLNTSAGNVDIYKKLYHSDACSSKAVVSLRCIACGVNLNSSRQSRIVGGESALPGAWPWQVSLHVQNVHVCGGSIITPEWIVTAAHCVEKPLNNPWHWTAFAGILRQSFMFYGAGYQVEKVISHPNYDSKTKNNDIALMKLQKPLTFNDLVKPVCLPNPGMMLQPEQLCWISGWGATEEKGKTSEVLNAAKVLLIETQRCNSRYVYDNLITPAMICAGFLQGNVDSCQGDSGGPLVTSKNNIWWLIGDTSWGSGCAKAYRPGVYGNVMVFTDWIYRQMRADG

Structure (SMILES) | IC50 (Recomb. Human Thrombin [1]) [µM] | IC50 [2] [µM] | IC50 [3] [µM] | IC50 (TMPRSS2 [4]) [µM] | IC50 (SARS-CoV2 WT [5]) [µM] | IC50 [7] [µM] | further results
CC(=O)N[C@@H](CCCNC(=N)N)C(=O)N[C@@H](CCC(N)=O)C(=O)N[C@@H](CC(C)C)C(=O)N[C@@H](CCCNC(=N)N)C(=O)c1nc2ccccc2s1 [Compound 1, Ac-RQLR-kbt] | > 100 | 0.803 | 0.0471 | 1.26 | 11.1 | – | –
CC(=O)N[C@@H](C)C(=O)N[C@@H](CCC(=O)O)C(=O)N[C@@H](CCC(N)=O)C(=O)N[C@@H](CCCNC(=N)N)C(=O)c1nc2ccccc2s1 [Compound 2, Ac-AEQR-kbt] | > 100 | 0.47 | 0.991 | 1.67 | 19 | – | –
CC(=O)NCC(=O)N[C@@H](CCC(N)=O)C(=O)N[C@@H](CCCNC(=N)N)C(=O)N[C@@H](CCCNC(=N)N)C(=O)c1nc2ccccc2s1 [Compound 3, Ac-GQRR-kbt] | > 100 | 1.3 | 22 | 0.332 | 20.1 | – | –
CC(=O)N[C@@H](CCC(N)=O)C(=O)N[C@@H](CCC(N)=O)C(=O)N[C@H](C(=O)N[C@@H](CCCNC(=N)N)C(=O)c1nc2ccccc2s1)C(C)C [Compound 4, Ac-QQVR-kbt] | > 10 | 2.05 | 1.5 | 0.5 | 58.5 | – | –
CC(=O)N[C@@H](CCC(=O)O)C(=O)N[C@@H](CCC(N)=O)C(=O)N1CCC[C@H]1C(=O)N[C@@H](CCCNC(=N)N)C(=O)c1nc2ccccc2s1 [Compound 5, Ac-EQPR-kbt] | > 100 | 2.1 | > 100 | 2.87 | – | – | –
CC(=O)N[C@@H](CC(N)=O)C(=O)N[C@@H](CCC(=O)O)C(=O)N[C@@H](CCC(N)=O)C(=O)N[C@@H](CCCNC(=N)N)C(=O)c1nc2ccccc2s1 [Compound 6, Ac-NEQR-kbt] | > 100 | 1.4 | 8.14 | 1.19 | 34.2 | – | –
CC(=O)N[C@@H](CCCNC(=N)N)C(=O)N[C@@H](CCC(=O)O)C(=O)N[C@@H](CS)C(=O)N[C@@H](CCCNC(=N)N)C(=O)c1nc2ccccc2s1 [Compound 7, Ac-RECR-kbt] | > 100 | – | 0.611 | 0.835 | – | – | –
CC(=O)N[C@@H](CCCCN)C(=O)N[C@@H](CCC(N)=O)C(=O)N[C@@H](CC(C)C)C(=O)N[C@@H](CCCNC(=N)N)C(=O)c1nc2ccccc2s1 [Ref.1, Ac-KQLR-kbt, reference compound] | > 100 | 3.01 | 0.338 | 3.43 | 15.6 | – | –
[H]/N=C(/N)c1ccc(NCc2nc3cc(C(=O)N(CCC(=O)O)c4ccccn4)ccc3n2C)cc1 [Ref.2, Dabigatran] | – | – | – | – | – | – | IC50 (TMPRSS2 [6]): > 100 µM
CC(=O)N[C@@H](CC(C)C)C(=O)N[C@@H](CC(C)C)C(=O)N[C@H](C=O)CCCNC(=N)N [Ref.3, Leupeptin] | – | – | – | – | – | > 13.9 | IC50 [8]: 36.8 µM; IC50 (TMPRSS2 [6]): > 27.6 µM; IC50 (Recomb. Human Thrombin [9]): > 100 µM
N=C(N)c1ccccc1 [Ref.4, Benzamidine] | – | – | – | – | – | > 100 | IC50 [8]: > 1000 µM; IC50 (TMPRSS2 [6]): > 100 µM
CN(C)C(=O)COC(=O)Cc1ccc(OC(=O)c2ccc(NC(=N)N)cc2)cc1 [Ref.5, Camostat mesylate] | – | – | – | – | – | 5.3 | IC50 (SARS-CoV2 WT [10]): 32.4 µM; IC50 [8]: 0.505 µM
N=C(N)NCCC[C@H](NC(=O)[C@@H]1CCCN1C(=O)[C@H](N)Cc1ccccc1)C(=O)CCl [Ref.6, PPack] | – | – | – | – | – | 0.0745 | IC50 (TMPRSS2 [6]): > 100 µM; IC50 (Recomb. Human Thrombin [9]): 0.000268 µM
N=C(N)c1ccc(CNC(=O)[C@@H]2CCN2C(=O)[C@H](NCC(=O)O)C2CCCCC2)cc1 [Ref.7, Melagatran] | – | – | – | – | – | 0.216 | –
N=C(N)Nc1ccc(C(=O)Oc2ccc(CC(=O)O)cc2)cc1 [Ref.8, FOY 251] | – | – | – | – | – | 21.5 | IC50 (Recomb. Human Thrombin [9]): > 100 µM
CC[C@H](C)[C@H](NC(=O)[C@H](C)NC(=O)[C@H](CCC(=O)O)NC(=O)[C@H](CCC(=O)O)NC(=O)[C@H](CC(C)C)NC(=O)[C@H](CCCCN)NC(=O)[C@H](CCCCN)NC(=O)[C@H](CCSC)NC(=O)[C@H](CCC(=O)O)NC(=O)[C@H](Cc1ccc(O)cc1)NC(=O)[C@H](CCC(=O)O)NC(=O)[C@H](CC(C)C)NC(=O)[C@H](CC(=O)O)NC(=O)[C@H](CC(C)C)NC(=O)[C@H](Cc1ccccc1)NC(=O)[C@@H](NC(=O)[C@@H](NC(=O)[C@H](CC(N)=O)NC(=O)[C@@H](NC(=O)[C@H](CCC(N)=O)NC(=O)[C@H](CC(=O)O)NC(=O)[C@H](CC(C)C)NC(=O)[C@@H](N)CO)[C@@H](C)CC)C(C)C)[C@@H](C)O)C(=O)N[C@@H](CCCCN)C(=O)N[C@@H](CCCCN)C(=O)N[C@@H](CC(C)C)C(=O)N[C@@H](CCC(=O)O)C(=O)N[C@@H](CCC(=O)O)C(=O)N[C@@H](CO)C(=O)N[C@@H](Cc1ccc(O)cc1)C(=O)N[C@H](C(=O)N[C@@H](CC(=O)O)C(=O)N[C@@H](CC(C)C)C(=O)N[C@@H](CCCCN)C(=O)N[C@@H](CCC(=O)O)C(=O)N[C@@H](CC(C)C)C(=O)O)[C@@H](C)CC [Ref.9, EK1, reference compound] | – | 0.228 | – | – | – | – | –
